Measurements as given in patent publication US8586552B2, “4,6-substituted 2,5-dideoxystreptamine aminoglycoside antibiotics” (SelectX Pharmaceuticals, Inc., priority 2012, dated 2013).
In brackets after ≈: the same amount, converted by molar mass.

Experiments:
[1] = system: resistant strain of P. aeruginosa (P. aeruginosa 6294 MLP-3); assay: Rat neutropenic thigh model against resistant P. aeruginosa; type: in vivo
Protocol: The compound identified as SXP 2523 was further tested in vivo against a resistant strain of P. aeruginosa. Twenty male Sprague Dawley rats were rendered neutropenic by treatment with cyclophosphamide on day −4 and day −1 with 100 mg/kg and 75 mg/kg, respectively. Rats were infected with P. aeruginosa 6294 MLP-3, via injection into the right thigh muscle of 0.1 mL per rat. Two hours post infection rats were treated intravenously with either SXP-2523 or amikacin in a total dose of 10 or 60 mg/kg, respectively. The test article and control agent were delivered at 2, 4, and 6 hours post infection. Five rats were treated with each drug concentration. One group of five rats were euthanized at initiation of treatment and thigh CFUs were determined (T=Rx). Twenty-four hours post infection; rats were euthanized by CO2 inhalation. The right thigh muscles of the rats were aseptically removed, weighed, homogenized, serially diluted, and plated on BHI medium. The plates were incubated overnight at 37° C. in 5% CO2. CFU per gram of thigh was calculated by enumerating the plated colonies then adjusting for serial dilutions and the weight of the thigh.

[2] = system: Acinetobacter baumannii (Aba, ABWT, ATCC #BAA-747); assay: MIC against Acinetobacter baumannii reference strain ABWT; type: cell-based
panel of E. coli strains = assay: MIC90 against a panel of E. coli strains; type: cell-based; conditions: in µg/mL
[3] = system: fifty resistant contemporary clinical isolates of Klebsiella pneumoniae; assay: MIC90 against panel of resistant clinical isolates of Klebsiella pneumoniae; type: cell-based; conditions: stringent panel of resistant clinical isolates, Table 5
Text: Using this stringent Klebsiella pneumoniae panel, we tested a subset of compounds of the invention.

[4] = system: Pseudomonas aeruginosa PR2 (clinical isolate with intermediate aminoglycoside resistance); assay: MIC against Pseudomonas aeruginosa clinical isolate PR2; type: cell-based; conditions: Pseudomonas aeruginosa resistant strain PR2
[5] = system: Pseudomonas aeruginosa PR1 (clinical isolate with intermediate aminoglycoside resistance); assay: MIC against Pseudomonas aeruginosa clinical isolate PR1; type: cell-based; conditions: Pseudomonas aeruginosa resistant strain PR1
[6] = system: Klebsiella pneumoniae (Kpn, KPWT, ATCC #700603); assay: MIC against Klebsiella pneumoniae reference strain KPWT; type: cell-based; conditions: Klebsiella pneumonia KPWT, Table 5 (unit not given); in µg/mL
[7] = system: Acinetobacter baumannii AB3; assay: MIC against Acinetobacter baumannii clinical isolate AB3; type: cell-based
Text: (§1) Acinetobacter baumannii is another clinically important and very challenging gram negative pathogen. Members of the Acinetobacter genus, including baumannii, have a remarkable ability to upregulate and acquire resistance determinants. Coupled with its ability to survive for prolonged periods in a hospital environment, A. baumannii is an emerging threat for healthcare institutions globally. We acquired clinical isolates of Acinetobacter baumannii and used this panel to test compounds for anti-Acinetobacter activity. We first tested reference AGs against our panel of Aba strains.

[8] = system: Klebsiella pneumoniae KR3 (clinical isolate possessing high-level aminoglycoside resistance); assay: MIC against Klebsiella pneumoniae clinical isolate KR3; type: cell-based; conditions: Klebsiella pneumonia KR3; in µg/mL
Text: (§2) Klebsiella pneumoniae (Kpn) and Escherichia coli (Eco) are gram-negative (like Pae), enteric pathogens with increasing clinical relevance. Many clinical isolates of Kpn and Eco harbor extended-spectrum beta-lactamases and are no longer sensitive to most beta-lactam antibiotics. We acquired clinical isolates of Klebsiella pneumoniae and Escherichia coli (Micromyx LLC, Kalamazoo, Mich.) and used this panel to test compounds for anti-enteric activity.

[9] = system: Pseudomonas aeruginosa PR3 (high-level, efflux-mediated, pan-aminoglycoside resistance); assay: MIC against Pseudomonas aeruginosa clinical isolate PR3; type: cell-based; conditions: Pseudomonas aeruginosa resistant strain PR3
[10] = system: Klebsiella pneumoniae KR2 (clinical isolate with intermediate aminoglycoside resistance); assay: MIC against Klebsiella pneumoniae clinical isolate KR2; type: cell-based; conditions: Klebsiella pneumonia KR2
Text: as §2

[11] = system: fifty resistant contemporary clinical isolates of Acinetobacter baumannii; assay: MIC90 against panel of resistant clinical isolates of Acinetobacter baumannii; type: cell-based
Text: As in the case of Pseudomonas aeruginosa and Klebsiella pneumoniae, we considered whether the SAR observed against select Acinetobacter baumannii strains 1, 2 or 3 was indicative of general potency. […] Using this stringent Acinetobacter baumannii panel, we tested a subset of compounds of the invention.

[12] = system: Acinetobacter baumannii AB1; assay: MIC against Acinetobacter baumannii clinical isolate AB1; type: cell-based
Text: as §1

[13] = system: Acinetobacter baumannii AB2; assay: MIC against Acinetobacter baumannii clinical isolate AB2; type: cell-based
Text: as §1

[14] = resistant P. aeruginosa, Log CFU/thigh, total dose 10 mg/kg SXP-2523 or 60 mg/kg amikacin iv

## NCCCNCC1OC(OC2C(NC(=O)C(O)CCN)CC(N)C(OC3OC(CN)C(O)CC3N)C2F)C(O)C(N)C1O (centres unmarked) [SXP 2523]
[1]; rat neutropenic thigh model, total dose 10 mg/kg iv
  efficacy against amikacin-resistant P. aeruginosa in animal model: effective against amikacin-resistant P. aeruginosa
[1]; [14]
  Change from 24 hr. control: −4.94
  Change from T = Rx controls: −1.78
[1]; resistant P. aeruginosa, neutropenic male Sprague Dawley rats, iv at 2, 4, 6 h post infection, total dose 10 mg/kg SXP-2523 or 60 mg/kg amikacin, 24 h post infection
  Log CFU/thigh: 1.71 Log CFU/thigh
[2]
  MIC ABWT: 0.5 µg/mL (≈ 0.798 µM)
Panel of E. coli strains
  MIC90 E. coli: 2
[3]
  MIC90 Klebsiella pneumonia: 1 µg/mL (≈ 1.6 µM)
[4]
  MIC PR2: 0.5 µg/mL (≈ 0.798 µM)
[5]
  MIC PR1: 1 to 2 µg/mL
[6]
  MIC KPWT: 0.5-1
[7]
  MIC AB3: 4 to 8 µg/mL
[8]
  MIC KR3: 1
[9]
  MIC PR3: 4 µg/mL (≈ 6.38 µM)
[10]
  MIC KR2: 0.5-1
[11]
  MIC90 Acinetobacter baumannii: 4 µg/mL (≈ 6.38 µM)
[12]
  MIC AB1: 2 to 4 µg/mL
[13]
  MIC AB2: 1 µg/mL (≈ 1.6 µM)
